Measured values from PMC10399118, “Detection of endogenous NPY release determined by novel GRAB sensor in cultured cortical neurons” (Frontiers in Cellular Neuroscience, 2023).
Like-named read-outs stand apart in the source and are kept apart here.

Assays:
GRAB NPY1.0 sensor [1] = assay: GRAB NPY1.0 sensor live-cell fluorescence imaging in cultured cortical neurons; type: cell-based, mouse
Protocol: Cortex was isolated from postnatal day 1–2 (P1-P2) mice (C57Bl/6, Charles River, Germany), and the meninges were removed in ice-cold dissection media containing 10% 10xHBSS (Gibco, Scotland, #14065056), 1% P/S, 1% sodium pyruvate (Gibco, Scotland, #11360070), 1% 1M HEPES (Gibco, Scotland), and 1.2% 45% glucose (Sigma-Aldrich, Germany). The cortices were cut into smaller pieces and incubated for 20–30 min at 37°C in papain solution containing 20 units/mL papain (Worthington Biochemical, #LS003126), 1mM L-cysteine (Sigma-Aldrich, Germany, #C7352), 1.9 mM CaCl2 (Sigma-Aldrich, Germany), 0.5 mM Kynurenic acid (Sigma-Aldrich, Germany, #K3375), pH adjusted to 7.4 with HCl and oxygenated with 95% O2 and 5% CO2. After incubation, the tissue was washed 3 times with Neurobasal A media and carefully triturated 3–5 times with a glass Pasteur pipette with a fire-polished tip. The dissociated cortical neurons were plated at a density of 100,000 or 150,000 cells/well onto the glia monolayered 18- or 25-mm coverslips, respectively, and grown in Neurobasal A media containing 1% Glutamax, 2% B-27, and 0.1% P/S. The day after seeding the neurons, half of the media was changed to remove any cell debris. Every 3–4 days, 1/4 of the media in the wells was removed and replaced with double of the removed volume of fresh neuronal media. The use of experimental animals was conducted in concordance with the Danish Research Ethical Committee for Experimental Animals (ethical permit #2017-15-0202-00092; PI: Andreas Toft Sørensen).
The following AAV vectors were used for experiments: GRAB NPY1.0 sensor (AAV2/9-hSyn-GRAB_NPY1.0; 6E+12−4.7E+13 vg/ml, 1 μL/well); sRGECO calcium sensor (AAV2/8-Ef1a-sRGECO-WPRE; Addgene plasmid #137125; RRID:Addgene_137125; 2.2E+13 vg/ml, 0.2 μL/well) ([Fenno et al., 2020]); NPY1-36 vector (AAV2/8-hSyn-PreproNPY-WPREpA; full-length peptide incl. CPON; produced in-house; 7.8E+12 vg/ml, 0.5 μL/well) ([Soud et al., 2019]). Primary cultures were transduced after 2–3 DIV and given […] to assure robust expression before being used for live-cell imaging.
Neurons were continuously perfused with artificial cerebrospinal fluid (aCSF) [120 mM NaCl, 5 mM KCl, 2 mM CaCl2, 2 mM MgCl2, 25 mM HEPES, and 30 mM D-glucose] at pH 7.4 and 32°C for all live imaging experiments. An RC-21BDW microscope flow chamber (Warner Instruments, Hamden, CT, USA) was used to hold the coverslips and to apply a flow of different aCSF and drug buffers during imaging at 20× with a Nikon Eclipse Ti microscope connected to two EM-CCD cameras (iXon3 897, Andor). A NIS-Elements software (Nikon, Tokyo, Japan) was used for recordings. GRAB NPY1.0 and sRGECO biosensors were excited with 488 nm and 561 nm laser lines (LED sapphire laser; Coherent Inc., Santa Clara, CA, USA), respectively. For the 488 nm LED laser excitation, a 491 nm mirror, and a 475/35 nm band-pass filter were used, while a 525/50 nm band-pass filter (AHF Analysentechnik, Tübingen-Pfrondorf, Germany) was used to detect emitted light. For the 561 nm LED laser excitation, a 561 nm mirror, and a 560/40 nm band-pass filter were used, while a 630/75 nm band-pass filter (AHF Analysentechnik, Tübingen-Pfrondorf, Germany) was used to detect emitted light. The collected images were recorded either at a frame rate of 1 frame/second when recording GRAB NPY1.0 alone or 4 frames/second when the sRGECO signal was also recorded. All recordings were performed using epifluorescence microscopy.
(§1) Epifluorescence imaging was conducted under constant slow perfusion of aCSF buffers at a flow rate of approximately 1 ml/min. To induce neuronal activity, bicuculline (Bic; 50 μM; 14340, Sigma-Aldrich, Germany; dissolved in DMSO) and 4-aminopyridine (4-AP; 250 μM; 275875, Sigma-Aldrich, Germany; dissolved in Milli-Q water) was added together with aCSF, which was carefully measured after adding the compounds to confirm a pH of 7.4. […]

[2] = test system: cultured cortical neurons; assay: sRGECO calcium sensor imaging of neuronal activity in cultured cortical neurons; type: cell-based, mouse
Protocol: Cortex was isolated from postnatal day 1–2 (P1-P2) mice (C57Bl/6, Charles River, Germany), and the meninges were removed in ice-cold dissection media containing 10% 10xHBSS (Gibco, Scotland, #14065056), 1% P/S, 1% sodium pyruvate (Gibco, Scotland, #11360070), 1% 1M HEPES (Gibco, Scotland), and 1.2% 45% glucose (Sigma-Aldrich, Germany). […]
Neurons were continuously perfused with artificial cerebrospinal fluid (aCSF) [120 mM NaCl, 5 mM KCl, 2 mM CaCl2, 2 mM MgCl2, 25 mM HEPES, and 30 mM D-glucose] at pH 7.4 and 32°C for all live imaging experiments. […] The collected images were recorded either at a frame rate of 1 frame/second when recording GRAB NPY1.0 alone or 4 frames/second when the sRGECO signal was also recorded. […]
as §1

GRAB NPY1.0 sensor [3] = settings: ref Wang et al., 2022, read-out: EC50 of GRAB NPY1.0 sensor response, cited from earlier work
From the text: Here, we report on the usage of the GRAB NPY1.0 sensor in mouse-cultured cortical neurons and address the question: can the sensor detect the release of endogenous NPY? This sensor, recently developed in the Yulong Li laboratory, Peking University of China, is one of six neuropeptide-based GRAB sensors engineered for detecting either SST, CCK, CRF, NTS, VIP or NPY ([Wang et al., 2022]). While it was shown that the SST, CCK, and CRF sensors can detect endogenously released neuropeptides ([Wang et al., 2022]), similar information is lacking on the NPY1.0 sensor. In our setup, we tested the NPY1. ...

[4] = transgene NPY cultures, BIBO3304 applied during Bic + 4-AP

Molecule: NC(=O)NCc1ccc(CNC(=O)[C@@H](CCCN=C(N)N)NC(=O)C(c2ccccc2)c2ccccc2)cc1 [BIBO3304]
- change of GRAB NPY1.0 fluorescence signal at baseline conditions (GRAB NPY1.0 sensor [1]; BIBO3304 1 μM applied at baseline, n = 90 neurons from 2 coverslips): remained unchanged
- change of GRAB NPY1.0 fluorescence when added during Bic + 4-AP (GRAB NPY1.0 sensor [1]; NPY transgene (AAV-NPY) cortical cultures, BIBO3304 1 μM added to Bic 50 μM + 4-AP 250 μM, n = 128 neurons from 6 coverslips): significant drop in fluorescence
- effect on GRAB NPY1.0 signal of cluster A during Bic + 4-AP (GRAB NPY1.0 sensor [1]; [4]): not affected
- effect on GRAB NPY1.0 signal of clusters B and C during Bic + 4-AP (GRAB NPY1.0 sensor [1]; [4]): significantly reduced
- effect on high-frequency activity induced by Bic + 4-AP (sRGECO signal) ([2]; BIBO3304 applied to the cultures): not per se affected

Molecule: Neuropeptide Y [NPY]
- neurons expressing the GRAB NPY1.0 sensor that remained unresponsive (GRAB NPY1.0 sensor [1]; 1 μM exogenous NPY, naive mouse cortical cultures, 174 neurons from 9 coverslips): 8 out of 174
- EC50 (GRAB NPY1.0 sensor [1]; mouse cultured cortical neurons expressing GRAB NPY1.0, exogenous NPY1-36 0.3, 1, 30, 1000 nM in aCSF with 1% BSA, pH 7.4, 32°C, mean ΔF/F0, three-parameter fit, n = 130 neurons from 5 coverslips, read-out: EC50 of GRAB NPY1.0 fluorescence response (normalized dose-response curve)): 0.038 µM
- change of sRGECO fluorescent signal (neuronal activity) during continuous Bic + 4-AP perfusion ([2]; exogenous NPY added to primary cultures during Bic + 4-AP): marked decrease
- EC50 (GRAB NPY1.0 sensor [3]; HEK293T cells stably expressing the NPY1.0 sensor): 0.04 µM
- EC50 (GRAB NPY1.0 sensor [3]; rat cortical neurons transduced by a similar AAV9 vector with human synapsin promoter): 0.0007 µM
